Assay results published in patent publication US20040267283A1, “Method, device and kit for body decoration” (priority 2003, published 2004).

Experiments:
Solubility of the dyes [1] = assay type: physicochemical
Description: (§1) In the first part of the in-vitro skin penetration study, the color application included the use of dyes D&C Green no. 6, FD&C Blue no. 1, FD&C Yellow no. 6, and FD&C Red no. 40. All chemicals used were analytical grade, obtained from standard supply houses (Sigma, VWR, etc.). The dyes were dissolve in ddw and the solution conductivity was measured using a dedicated apparatus. The target conductivity was defined as a minimum of 1 mAmp/cm^3 current at 3 volts. If such conductivity was not attained, the dye concentration and/or the voltage were increased.

Solubility of the dyes [2] = assay type: physicochemical; remark: listed apart in the source
mice = conditions: cited from earlier work; for Toxicity, LD50: IP in mice
[3] = Solution conductivity of the dyes (current at applied voltage); assay type: physicochemical
Description: as §1, with “increased. See Table 1 for the solubility and conductivity of the dyes.” for “increased.”

swine ear skin = test system: swine ear skin
Description: An in-vitro skin penetration study was conducted to determine which combination of parameters results in the maximum amount of active substance, e.g., color formulation, being delivered into the skin, i.e., the dermis and epidermis, but not through the skin, i.e., beneath the epidermis.
The in-vitro skin penetration study generally included the following test procedure. Decoration ink, as in embodiments of the present invention, was applied on a piece of swine ear skin. The swine skin was excised to full thickness (epidermis and dermis) to an approximate depth of 500-1000 μm. […]
At the end of the exposure period, the entire receptor compartment was drained and the solution reserved for subsequent analysis of the dye(s) and/or pigment(s). […] The depth of penetration was measured by noting the number of tape strippings required to remove the ink. […] The ink was determined quantitatively using customary analytical procedures (e.g., HPLC, UV-Vis spectrum, GC, radiolabeled detection, etc.), as applicable. […]
In these experiments, the enhancing effect of iontophoresis and/or electroosmosis on skin penetration of different dyes was assessed. […] The following properties were measured to determine the enhancing effect of iontophoretic induction on the dyes' skin penetration: uniformity of the dyeing by observation; and penetration depth by tape stripping. […]

[4] = reason for choosing the additional dyes; cited from earlier work
human = conditions: reason for choosing the additional dyes; cited from earlier work
swine skin = assay: In-vitro skin penetration, hydrogel patches on stretched skin (vertical diffusion cells without cell tops), tape stripping; assay type: in vitro ADME; conditions: for Depth of penetration (Tape strips = TS): skin cleaned with 10% lactic acid
Description: In the second part of the in-vitro skin penetration study, the color application included the use of a hydrogel patch and dye FD&C Red no. 40 and additional dyes, Acid Blue 1 (Blue V) and Indocyanine green, on the swine skin. All chemicals used were analytical grade, obtained from standard supply houses (Sigma, VWR, etc.). […] In these experiments, the depth of penetration was tested for the additional dyes using iontophoresis and/or electroosmosis. Additionally, extensive work was done in order to establish a shaped tattoo that is sharp and has strong color imprint. The experiments were also directed to the effect of the application duration on the tattoo life span. The following properties of the tattoo were measured to determine the effects of iontophoresis on the dyes and pigments' skin penetration: uniformity of the dyeing by observation; penetration depth by tape stripping; and water durability by washing the skin with tap water.
The experiments performed in this second part of the study are described below. Experiments 2.1-2.8 and 2.10-2.14 were conducted on in-vitro swine skin. Experiments 2.9, 2.15, and 2.16 were conducted on in-vivo human skin. FIGS. 6-14 illustrate the body decoration results from the experiments.
This experiment was conducted to determine the dye penetration depth of stretched skin, as would be the case on the subject's body area. In the vertical diffusion cells without the cell tops, the skin was stretched with the cell clamps. To increase the water content of the hydrogel in the patches, the hydrogel was soaked with ddw for 2 minutes. Excess water was then absorbed. Tissue paper heart-shaped pieces were soaked in Blue V solution (100 mg/ml in ddw). The blue heart shapes were placed on the patches' hydrogel and removed a few seconds later, leaving a blue heart-shaped imprint on the hydrogel. The hydrogel patches with the blue heart-shaped imprint were placed on the skin after the skin was cleaned with 10% lactic acid. In the active experiments, the patch wires were connected to a power supply tuned to 0.5 mAmp (0.5 mAmp/cm^2). […] The dye penetration depth was determined by tape stripping.
Blue heart-shaped tattoos were created, as described before in Experiment 6. This experiment was conducted to sharpen the tattoo by soaking the hydrogel in ddw for only few seconds.
In this experiment, the patches' hydrogel content was changed. Instead of KCl, the hydrogel contained NaCl. 100 mg/ml Blue V in ddw with 10% ethanol was used to create the blue heart-shaped imprint. The assay lasted 20 minutes and was done in duplicates. […] The penetration depth was lower with NaCl than KCl in Experiment 2.6.

human skin = assay: In-vivo human skin tattoo with imprinted hydrogel patches; conditions: Exp 2.16, human study, star shape, 50 mg/ml in ddw, 0.04 mAmp, 60 min, skin cleaned with 10% lactic acid
rabbit = conditions: SC in rabbit; cited from earlier work

Question: For Cc1ccc(Nc2ccc(Nc3ccc(C)cc3)c3c2C(=O)c2ccccc2C3=O)cc1 [Green no. 6, D&C Green no. 6], which Solubility (Solubility of the dyes [1]; 10 mg/ml in water) is on record?
Answer: The Solubility was “Insoluble”.

Question: What about the Solubility (Solubility of the dyes [2]; 2.5 mg/ml + 30% ethanol) of the same compound?
Answer: Its Solubility is “Insoluble”.

Question: What about the Solubility (Solubility of the dyes [2]; 10 mg/ml + 30% ethanol) of the same compound?
Answer: Its Solubility is “Insoluble”.

Question: What about the “Toxicity, LD50” value (mice) of the same compound?
Answer: Its value is “LD50 = 0.25 gm/kg”.

Question: Which Solubility (Solubility of the dyes [1]; 2 mg/ml in water) does the source give for CCN(Cc1cccc(S(=O)(=O)[O-])c1)c1ccc(C(=C2C=CC(=[N+](CC)Cc3cccc(S(=O)(=O)[O-])c3)C=C2)c2ccccc2S(=O)(=O)[O-])cc1.[Na+].[Na+] [Blue no. 1, FD&C Blue no. 1] here?
Answer: Its Solubility is “Soluble”.

Question: And the Solubility (Solubility of the dyes [1]; 6 mg/ml in water)?
Answer: The Solubility was “Soluble”.

Question: And the Solubility (Solubility of the dyes [1]; 10 mg/ml in water)?
Answer: The Solubility was “Soluble”.

Question: And the Solubility (Solubility of the dyes [1]; 20 mg/ml in water)?
Answer: Its Solubility is “Soluble”.

Question: What about the Current ([3]; 2 mg/ml in water, 3 V) of the same compound?
Answer: Its Current is “None”.

Question: And the Current ([3]; 6 mg/ml in water, 3 V)?
Answer: The Current was “˜0.3 mA”.

Question: What about the Current ([3]; 6 mg/ml in water, 3.92 V) of the same compound?
Answer: Its Current is 1 mA.

Question: And the Current ([3]; 10 mg/ml in water, 3 V)?
Answer: Its Current is “˜0.4 mA”.

Question: And the Current ([3]; 10 mg/ml in water, 3.69 V)?
Answer: Its Current is 1 mA.

Question: What about the Current ([3]; 20 mg/ml in water, 3 V) of the same compound?
Answer: Its Current is “˜0.4 mA”.

Question: And the Current ([3]; 20 mg/ml in water, 3.69 V)?
Answer: The Current was 1 mA.

Question: What about the Toxicity (mice; SC in mice) of the same compound?
Answer: The Toxicity was 5.5 gm/kg.

Question: What does the source list for CC1(C)C(/C=C/C=C/C=C/C=C2\N(CCCCS(=O)(=O)O)c3ccc4ccccc4c3C2(C)C)=[N+](CCCCS(=O)(=O)[O-])c2ccc3ccccc3c21 [Green, Indocyanine green, reference compound]?
Answer: Effect of iontophoresis on skin penetration depth (swine ear skin): not affected; Solubility in water [4]: soluble in water; Toxicity (approved for human injection) (human): nontoxic

Question: Which “Effect of iontophoresis on skin penetration depth” value (swine ear skin) does the source give for CCN(CC)c1ccc(C(=C2C=CC(=[N+](CC)CC)C=C2)c2ccc(S(=O)(=O)[O-])cc2S(=O)(=O)[O-])cc1.[Na+] [Blue V, Acid Blue 1] here?
Answer: Its value is “increased”.

Question: And the “Depth of penetration (Tape strips = TS)” value (swine skin; Exp 2.13, Active, Anode, hydrogel with NaCl, 100 mg/ml in ddw with 10% ethanol, current = 500 μA/cm^2, 20 min)?
Answer: Its value is “Anode - TS# 3”.

Question: What about the “Depth of penetration (Tape strips = TS)” value (swine skin; Exp 2.13, Active, Cathode, hydrogel with NaCl, 100 mg/ml in ddw with 10% ethanol, current = 500 μA/cm^2, 20 min) of the same compound?
Answer: The value was “Cathode - TS# >4”.

Question: What about the “Depth of penetration (Tape strips = TS)” value (swine skin; Exp 2.13, Passive, hydrogel with NaCl, 100 mg/ml in ddw with 10% ethanol, 20 min) of the same compound?
Answer: Its value is “TS# 3”.

Question: And the “Penetration depth with NaCl hydrogel compared with KCl hydrogel” value (swine skin; Exp 2.13 compared with Exp 2.6)?
Answer: Its value is “lower”.

Question: And the “Depth of penetration (Tape strips = TS)” value (swine skin; Exp 2.6, Active, Anode, 100 mg/ml in ddw, stretched skin, current = 500 μA/cm^2, 30 min)?
Answer: The value was “Anode - TS# 5”.

Question: And the “Depth of penetration (Tape strips = TS)” value (swine skin; Exp 2.6, Active, Cathode, 100 mg/ml in ddw, stretched skin, current = 500 μA/cm^2, 30 min)?
Answer: Its value is “Cathode - TS# >6”.

Question: And the “Depth of penetration (Tape strips = TS)” value (swine skin; Exp 2.6, Passive, 100 mg/ml in ddw, stretched skin, 30 min)?
Answer: Its value is “TS# 4”.

Question: And the “Depth of penetration (Tape strips = TS)” value (swine skin; Exp 2.8, Active, Anode, 100 mg/ml in ddw, hydrogel soaked in ddw for only few seconds, current = 500 μA/cm^2)?
Answer: The value was “Anode - TS# 4”.

Question: What about the “Depth of penetration (Tape strips = TS)” value (swine skin; Exp 2.8, Active, Cathode, 100 mg/ml in ddw, hydrogel soaked in ddw for only few seconds, current = 500 μA/cm^2) of the same compound?
Answer: Its value is “Cathode - TS# >7”.

Question: What about the “Depth of penetration (Tape strips = TS)” value (swine skin; Exp 2.8, Passive, 100 mg/ml in ddw, hydrogel soaked in ddw for only few seconds) of the same compound?
Answer: The value was “TS# 4”.

Question: And the “Time after which the dye completely faded (tattoo life span)” value (human skin; Active With polyester)?
Answer: The value was “after 10 days”.

Question: What about the “Time after which the dye completely faded (tattoo life span)” value (human skin; Active Without polyester) of the same compound?
Answer: The value was “after 7 days”.

Question: What about the Solubility in water [4] of the same compound?
Answer: Its Solubility in water is “soluble in water”.

Question: And the “Toxicity (approved for human injection)” value (human)?
Answer: The value was “nontoxic”.

Question: For O=S(=O)([O-])c1ccc(N=Nc2c(O)ccc3cc(S(=O)(=O)[O-])ccc23)cc1.[Na+].[Na+] [Yellow no. 6, FD&C Yellow no. 6], which Current ([3]; 20 mg/ml in water, 3 V) is on record?
Answer: The Current was 1.3 mA.

Question: And the “Toxicity, LD50” value (mice)?
Answer: Its value is “LD50 = 4.6 gm/kg”.

Question: With COc1cc(S(=O)(=O)[O-])c(C)cc1N=Nc1c(O)ccc2cc(S(=O)(=O)[O-])ccc12.[Na+].[Na+] [Red no. 40, FD&C Red no. 40] as the compound, how does the Solubility (Solubility of the dyes [1]; 10 mg/ml in water) read?
Answer: Its Solubility is “Soluble”.

Question: And the Solubility (Solubility of the dyes [1]; 20 mg/ml in water)?
Answer: The Solubility was “Soluble”.

Question: And the Current ([3]; 10 mg/ml in water, 3 V)?
Answer: The Current was “˜0.3 mA”.

Question: What about the Current ([3]; 10 mg/ml in water, 4.15 V) of the same compound?
Answer: The Current was 1 mA.

Question: What about the Current ([3]; 20 mg/ml in water, 3 V) of the same compound?
Answer: Its Current is 1.1 mA.

Question: What about the “Toxicity, LD50” value (rabbit) of the same compound?
Answer: The value was “LD50 > 10 gm/kg,”.
